Assay results published in patent US9808448B2, “Pharmaceutical compounds and use of same in cancer and tauopathies” (THE REGENTS OF THE UNIVERSITY OF MICHIGAN, priority 2013, dated 2017).
“And” between values parts separate entries of the source, which are not always exact repeats. Equal values may be shown once. “Also recorded” adds a separate entry of the source.

How the values were obtained:
[1] = target: T1, human Hsc70NBD (Homo sapiens, UniProt P11142); assay: Biolayer interferometry (Octet Red), Hsc70NBD; format: binding; conditions: immobilized biotinylated Hsc70NBD
T1 construct: made in house
T1 sequence (P11142 2-386 limits assumed): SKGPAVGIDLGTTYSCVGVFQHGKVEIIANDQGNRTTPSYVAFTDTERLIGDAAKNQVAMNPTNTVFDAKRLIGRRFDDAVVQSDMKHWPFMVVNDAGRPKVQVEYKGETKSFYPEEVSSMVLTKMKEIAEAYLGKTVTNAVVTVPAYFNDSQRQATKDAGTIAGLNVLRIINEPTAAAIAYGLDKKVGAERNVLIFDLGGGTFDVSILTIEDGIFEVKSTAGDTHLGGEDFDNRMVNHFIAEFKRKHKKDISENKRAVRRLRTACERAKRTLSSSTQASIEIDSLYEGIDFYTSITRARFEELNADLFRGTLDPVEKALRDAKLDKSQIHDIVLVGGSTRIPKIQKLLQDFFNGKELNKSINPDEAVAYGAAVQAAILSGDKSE
Procedure: (§1) Binding of MKT-077 analogs to immobilized Hsp70 was evaluated using a competitive ELISA. In this established assay, a biotinylated version of MKT-077 is bound to immobilized human Hsc70 (HSPA8) and potential competitors are tested for their ability to block the interaction. […] As further controls, the truncated compounds YM-02, YM-03, YM-04 and YM-07 were tested.
(§2) Biotinylated human Hsc70NBD or full length Hsp72 were first immobilized on super streptavidin biosensors (ForteBio, 18-5057) as follows: biosensors were soaked with MG buffer (100 mM Tris base, 20 mM KCl, 6 mM MgCl2, 0.01% Triton X-100, pH 7.4) for 10 min before moving them to wells either containing 200 μL […] biotinylated proteins or […] biocytin for 60 min. The free streptavidin sites were subsequently quenched with […] biocytin for 10 min. The biosensors were washed with MG buffer for 5 min prior to beginning the binding experiments. The association and disassociation steps were carried out in MG buffer with a constant 10% DMSO concentration. All steps were performed at room temperature and with 1000 rpm rotary shaking. […] The apparent affinities of YM-08 for Hsc70NBD and Hsp72 were calculated from both equilibrium measurements and global fits of the kon and koff values, yielding similar values.

[2] = target: T2, Hsp72 (HSPA1) (Homo sapiens, UniProt P0DMV8); assay: Biolayer interferometry (Octet Red), Hsp72; format: binding; conditions: immobilized full length Hsp72
T2 construct: Biotinylated human Hsc70NBD or full length Hsp72 were first immobilized; made in house
T2 sequence (P0DMV8 whole entry): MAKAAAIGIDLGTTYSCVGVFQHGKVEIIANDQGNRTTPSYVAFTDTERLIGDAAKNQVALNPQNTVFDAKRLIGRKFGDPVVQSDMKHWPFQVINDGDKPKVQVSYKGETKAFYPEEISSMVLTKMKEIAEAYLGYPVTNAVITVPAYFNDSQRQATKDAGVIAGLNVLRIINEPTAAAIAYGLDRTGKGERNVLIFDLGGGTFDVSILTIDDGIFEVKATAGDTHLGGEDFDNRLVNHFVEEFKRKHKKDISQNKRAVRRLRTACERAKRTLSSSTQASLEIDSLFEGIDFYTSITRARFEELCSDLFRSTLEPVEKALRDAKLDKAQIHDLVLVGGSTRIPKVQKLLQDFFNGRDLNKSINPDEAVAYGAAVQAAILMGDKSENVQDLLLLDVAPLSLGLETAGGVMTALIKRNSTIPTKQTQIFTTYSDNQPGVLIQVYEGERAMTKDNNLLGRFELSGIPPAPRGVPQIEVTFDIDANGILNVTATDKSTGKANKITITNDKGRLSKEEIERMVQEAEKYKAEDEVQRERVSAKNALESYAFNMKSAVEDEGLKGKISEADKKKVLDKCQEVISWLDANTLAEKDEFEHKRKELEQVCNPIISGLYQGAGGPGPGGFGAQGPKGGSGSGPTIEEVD
Procedure: as §1, §2

[3] = target: yeast Hsp70 (Ssa1p) and Hlj1p (Saccharomyces cerevisiae, UniProt P10591); assay: Single turnover ATPase assay; format: biochemical
yeast Hsp70 (Ssa1p) and Hlj1p, sequence (P10591 whole entry): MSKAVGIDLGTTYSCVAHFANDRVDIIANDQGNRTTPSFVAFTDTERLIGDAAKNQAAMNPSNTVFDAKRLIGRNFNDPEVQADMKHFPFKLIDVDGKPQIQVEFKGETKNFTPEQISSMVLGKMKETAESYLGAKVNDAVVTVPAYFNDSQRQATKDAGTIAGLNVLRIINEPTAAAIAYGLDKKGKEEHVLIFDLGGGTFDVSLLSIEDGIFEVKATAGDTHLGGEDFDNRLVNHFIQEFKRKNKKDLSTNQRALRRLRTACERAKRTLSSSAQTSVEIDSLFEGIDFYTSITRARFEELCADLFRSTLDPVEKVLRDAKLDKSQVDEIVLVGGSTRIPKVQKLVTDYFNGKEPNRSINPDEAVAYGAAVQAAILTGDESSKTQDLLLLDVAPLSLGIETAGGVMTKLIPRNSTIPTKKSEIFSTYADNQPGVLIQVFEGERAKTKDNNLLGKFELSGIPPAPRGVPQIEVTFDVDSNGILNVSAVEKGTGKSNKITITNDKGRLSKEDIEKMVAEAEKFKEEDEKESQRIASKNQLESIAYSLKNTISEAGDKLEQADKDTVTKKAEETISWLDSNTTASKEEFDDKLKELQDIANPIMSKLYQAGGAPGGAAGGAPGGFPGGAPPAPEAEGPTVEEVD
Procedure: (§3) Next, the effect of chaperone functions by binding of YM-08 to Hsp70 was investigated. […] This profile is shared with other allosteric Hsp70 inhibitors. As another test of chaperone function, the effects of the compounds on the binding of Hsp70 to a misfolded protein were measured. In previous work, MKT-077 stabilized the interaction between prokaryotic Hsp70 (DnaK) and denatured luciferase. Briefly, this assay involves immobilizing unfolded luciferase in microtiter plates and measuring binding to DnaK. […] To explore whether YM-08 might also enhance binding of Hsp70 to a more physiologically relevant substrate, binding of tau to immobilized human Hsc70 was measured.
Single turnover ATPase assays were performed as previously described in, e.g., Fewell, et al., J. Biol. Chem., 279:51131-51140 (2004), and Chiang, et al., Bioorg. Med. Chem., 17:1527-1533 (2009). Briefly, the yeast Hsp70, Ssa1p (about 0.2 μM), was prebound to α-[32P]ATP. The hydrolysis of ATP in the presence or absence of an equimolar amount of Hlj1 was measured by monitoring the generation of α-[32P]ADP by thin layer chromatography (TLC).

[4] = target: T3, human Hsc70 (Homo sapiens, UniProt P11142); assay: Binding of tau to immobilized human Hsc70; format: biochemical
T3 construct: made in house
T3 sequence (P11142 2-646): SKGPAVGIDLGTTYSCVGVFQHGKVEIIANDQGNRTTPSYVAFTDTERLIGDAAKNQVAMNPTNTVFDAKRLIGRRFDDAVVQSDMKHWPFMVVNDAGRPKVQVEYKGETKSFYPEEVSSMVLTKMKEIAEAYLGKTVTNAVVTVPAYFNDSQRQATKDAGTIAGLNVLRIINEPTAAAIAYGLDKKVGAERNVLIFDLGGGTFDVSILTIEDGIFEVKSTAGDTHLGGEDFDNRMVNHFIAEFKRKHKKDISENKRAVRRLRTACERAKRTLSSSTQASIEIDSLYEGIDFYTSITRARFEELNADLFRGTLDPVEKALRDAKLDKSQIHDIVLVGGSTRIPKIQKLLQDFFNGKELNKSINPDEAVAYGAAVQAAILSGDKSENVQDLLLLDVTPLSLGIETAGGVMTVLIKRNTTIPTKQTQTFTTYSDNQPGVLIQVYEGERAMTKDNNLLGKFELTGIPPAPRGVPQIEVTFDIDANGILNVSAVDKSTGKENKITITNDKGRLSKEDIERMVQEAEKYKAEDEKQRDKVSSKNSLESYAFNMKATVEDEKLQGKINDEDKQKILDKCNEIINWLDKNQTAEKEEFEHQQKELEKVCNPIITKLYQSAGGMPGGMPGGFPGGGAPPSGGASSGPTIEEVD
Procedure: as §3
Binding of prokaryotic Hsp70 (DnaK) to denatured luciferase was measured as previously described, in e.g., Miyata, et al., J. Biomol. Screen, 15:1211-1219 (2010). Briefly, firefly luciferase (0.2 mg/mL) was proteolyzed with trypsin and immobilized in 96-well microtiter plates. After washing, the binding of luciferase to DnaK (500 nM) was measured using an anti-DnaK antibody and HRP secondary antibody. A similar strategy was used to monitor binding of human Hsc70 to tau, as previously described in Thompson, et al., ACS Chem. Biol., 7:1677-1686 (2012).

[5] = system: stress inducible Hsp72 (HSPA1); assay: Stress response in treated HeLaC3 cell lysates; format: cell-based, human
[6] = system: MEF (C57BL/6); assay: Cell survival, MEF; format: cell-based; conditions: Mus musculus; tau activity screen table; read-out: MEF IC50
[7] = system: phospho- and total tau in brain slices from transgenic P301L tau mice (Tg4510); assay: Tau levels in transgenic brain slice cultures; format: cell-based, mouse; conditions: 30 and 100 μM, 6 hours
Procedure: (§4) YM-08 activity in a more physiological system was tested. Brain slice cultures from transgenic mice that express mutated tau were treated for 6 hours with YM-08 and the levels of total- and pS396/404 tau measured by Western blots. […] To test whether YM-08 might selectively reduce tau after microtubule disruption, brain slices were cultured from wild type mice and treated them with YM-08 plus the microtubule destabilizer, nocodazole. […] Together, these studies add to growing evidence that Hsp70 selectively identifies tau variants that are not associated with the normal microtubule network, likely minimizing their aggregation and proteotoxicity.

[8] = system: total and phospho-tau in wild type brain slices; assay: Tau levels in wild type brain slice cultures; format: cell-based, mouse
Procedure: as §4

[9] = Liver microsome stability; format: in vitro ADME; conditions: human, liver microsomes
[10] = Initial pharmacokinetics and biodistribution in CD1 mice; format: in vivo, mouse; conditions: i.v., YM-01 20 mg/kg saline, YM-08 10 mg/kg 10% DMSO/saline
Procedure: (§5) (A) Initial pharmacokinetics and biodistribution of YM-01 and YM-08. Compounds were suspended in buffered saline (YM-01) or 10% DMSO/saline (YM-08) and injected at 20 and 10 mg/kg, respectively. YM-08 was not soluble in saline or 10% DMSO/saline at 20 mg/kg. The levels of YM-08 in the brain at 1 hr after injection could not be accurately determined because its value was outside the calibration curve. […] Results are average from data acquired from three female mice. (C) YM-08 maintains a B/P ratio of nearly 0.25 for 18 hrs.
(§6) The initial pharmacokinetics (PK) of YM-01 and YM-08 were tested in CD1 mice. […] After a single 6.6 mg/kg dose delivered i.v., the peak brain concentration of YM-08 was 4 μg/g (FIG. 7B) and the ratio in the brain:plasma (B/P) ratio was approximately 0.25 for 18 hrs (FIG. 7C). […] It is not yet clear how much tau levels need to be reduced to achieve therapeutic effects in disease models, but the area-under-the-curve (AUCinf) for YM-08 in the brain was 0.26 μg·hr/g and the AUCinf in plasma was 13.6 μg·hr/mL.

[11] = Solubility in dosing vehicle; format: physicochemical
Procedure: as §5, §6

[12] = t1/2 in tau activity screen table; format: in vitro ADME; conditions: liver microsomes; matrix not stated

For CCn1c(=O)/c(=C2\Sc3ccccc3N2C)s/c1=C\c1ccccn1 [YM-08, (2Z,5E)-3-ethyl-5-(3-methylbenzo[d]thiazol-2(3H)-ylidene)-2-(pyridin-2-ylmethylene)thiazolidin-4-one], the Kd [1] was ~2.3 µM and ~4 µM, the Kd [2] was roughly 2 µM and the “ATP turnover, Hlj1-stimulated ATPase activity” value ([3]; Ssa1 plus Hlj1) was “partially inhibited”. The “intrinsic ATPase activity of Ssa1” value ([3]; without Hlj1) was “minimal effect”, the “affinity of chaperone for tau substrate” value [4] was “enhanced the affinity” and the “stress response (Hsp72 levels)” value [5] was “did not induce a stress response”. For the same compound, the IC50 [6] was 4.2 ± 0.24 µM, the phospho-tau level [7] was “reduced phospho-tau” and the “tau levels, YM-08 alone” value [8] was “unchanged; also recorded: did not significantly reduce tau levels”. The “total and phospho-tau levels, plus nocodazole” value ([8]; microtubule disruption) was “decreased levels of both total and phospho-tau”, the half-life [9] was 2 to 4 min and the half-life ([9]; figure legend) was roughly 4 min. For the same compound, the kidney distribution ([10]; 0.16 and 1 hrs) was “reduced retention in the kidney”, the brain penetration ([10]; 0.16 hrs) was “abundant in the brain” and the “solubility in saline or 10% DMSO/saline” value [11] was “not soluble; also recorded: only marginally soluble”. For the same compound, the half-life [12] was less than 3 min.
